These results are taken from publication PMC5979539 (International Journal of Molecular Sciences, 2018).

One data set addresses T1, PDC-109 (Bos taurus, UniProt P02784).
T1 construct: PDC-109, purified from bull seminal plasma, was kindly donated by J.J. Calvete; tissue gift of J.J. Calvete; host or cells: bull seminal plasma
T1 sequence (P02784 26-134): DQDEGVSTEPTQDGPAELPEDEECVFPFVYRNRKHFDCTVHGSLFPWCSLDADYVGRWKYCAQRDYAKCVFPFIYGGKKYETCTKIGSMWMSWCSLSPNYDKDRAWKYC
Description: SPR binding profile and kinetics of PDC-109 on immobilized neo-glycoprobes. Also on record: species or system bovine. Conditions: immobilized glycoprobe, PDC-109 6.25 to 100 μM, HBS-P pH 7.4, 25 °C, 1:1 Langmuir model. The source says: While the lipid selectivity and kinetics of PDC-109 has been characterized in considerable detail, its interaction with carbohydrate epitopes remains largely uncharted, despite its potential role in sperm reservoir formation in the female genital tract. We have therefore performed SPR experiments with PDC-109 and the most relevant mammalian glycotopes, particularly those containing Fuc epitopes. Once SPR sensor chips were functionalized with the different synthetic glycoprobes and evaluated with specific lectins (Section 2.1.2) they were used to characterize both qualitatively and quantitatively the interaction of PDC-109. For kinetic analysis, several concentrations in the 6.25 to 100 μM range were analyzed and a 1:1 Langmuir binding model was chosen for sensorgram fitting.
Data dispersion was attributable to the unusual sensorgrams observed, reflecting a complex binding event, particularly in the association phase of PDC-109. […] In a conventional, straightforward binding event, the response—i.e., the signal rise over time, reflecting protein binding to the sensor surface—reaches a constant value once equilibrium is established, and remains so until the protein solution passed over the sensor chip is replaced with buffer, giving way to the spontaneous dissociation process and subsequent surface regeneration.
Binding experiments were performed at 25 °C and 30 μL/min flow rate. […] Sensor surface was regenerated with a 60 μL-injection of specific carbohydrate (10 mM lac, 500 mM αMe-Man, 0.5 M αMe-Fuc, and 10 mM Sia) followed by a 60 μL-injection of NaCl 1 M.

The next data set deals with MAA. Put plainly: SPR binding and kinetics of MAA on immobilized sialic acid glycoprobes. Details: species or system Maackia amurensis.
Data set [1] concerns the molecule itself. Put plainly: SPR; PDC-109 immobilised on a CM5 chip (1645 RU, 10 mM NaOAc pH 4); 50 µM PDC-109 passed over at 20 µL/min; regeneration with 1 M NaCl; two replicates. A general note: Surface plasmon resonance follows binding to a sensor surface in real time, without labels.
The subject of a further data set is PC membranes. Conditions: cited from earlier work. The source says:
Despite the above-discussed limitations, we were able to determine the SPR binding parameters of PDC-109. Affinity constants (Table 4) indicated weak to moderate binding for carbohydrates, at least if compared to the considerably higher affinity (KA~10^7 M^−1) found for PC membranes.

For the molecule “Neu5Ac-α2,3-Gal-β1,4-GlcNAc-N[Me]-O-Aoa-GFKKG-amide [Neu5Ac-α2,3-Gal-β1,4-GlcNAc-Aoa(m)-GFKKG, neo-glycoprobe: Neu5Ac-α2,3-Gal-β1,4-GlcNAc oxime-ligated to the peptide module N[Me]-O-Aoa-GFKKG]”, the “derived association (KA) constant” value on PDC-109 was 12400 M⁻¹. On PDC-109 (3 to 6 repeat experiments), this molecule had a kd of 0.00477 s⁻¹. Also, the ka at PDC-109 (30 μL/min, 3 to 6 repeat experiments, CV exceeding 50% in particular cases) is 99.9 M⁻¹ s⁻¹; with MAA (SPR, immobilized glycoprobe, MAA 250 nM to 1.9 μM, HBS-P pH 7.4 + CaCl2 5 mM, MnCl2 1 mM, 1:1 Langmuir model) it was 5.55 × 10^3 M^−^1 s^−^1. Also, the “carbohydrate specificity of MAA in words” value in the data set on MAA (SPR binding responses on sialic acid glycoprobe chip) is on record as “recognized only”. Further, the KA with MAA (SPR, immobilized glycoprobe, MAA 250 nM to 1.9 μM, 1:1 Langmuir model) is listed as 9.12 × 10^5 M^−^1.

B1: PDC-109 (BSP-A1/-A2), main protein of bovine seminal plasma (natural protein, UniProt P02784 26-134, looked up)
chain: DQDEGVSTEPTQDGPAELPEDEECVFPFVYRNRKHFDCTVHGSLFPWCSLDADYVGRWKYCAQRDYAKCVFPFIYGGKKYETCTKIGSMWMSWCSLSPNYDKDRAWKYC
modifications: mixture of the glycosylated (O-linked trisaccharide, Neu5Ac-Hex-HexNAc) and non-glycosylated forms
notes: Native preparation; two closely spaced bands on SDS-PAGE (glycosylated and non-glycosylated forms); The same preparation was both immobilised and flowed over the chip; also called BSP-A2; source: purified from bull seminal plasma (donated by J.J. Calvete)
As for B1, the binding result in data set [1] was “binds”.

B2: PDC-109: main protein of bovine seminal plasma, purified from bull seminal plasma; glycosylated and non-glycosylated forms (protein)
chain: DQDEGVSTEPTQDGPAELPEDEECVFPFVYRNRKHFDCTVHGSLFPWCSLDADYVGRWKYCAQRDYAKCVFPFIYGGKKYETCTKIGSMWMSWCSLSPNYDKDRAWKYC
modifications: mixture of the glycosylated (O-linked trisaccharide, Neu5Ac-Hex-HexNAc) and non-glycosylated forms
B2: the “KA for PC membranes” value in the data set with PC membranes is ~ 10^7 M^−1.
